For orientation: Kd means the free concentration of one partner at which half of the binding sites on the other are occupied at equilibrium, for simple one-to-one binding.

Calls of active or inactive are those of the source. How the calls were made is not given here.

The target in the assay is Ubiquitin-conjugating enzyme E2 N (Homo sapiens) (UniProt P61088). The assay is described as follows: NMR detection of UBE2N ligand binding – biophysical, purified protein (AID 1552). The settings on record: NMR binding to purified UBE2N.
Ubiquitin-conjugating enzyme E2 N (Homo sapiens), sequence (P61088 whole entry, looked up): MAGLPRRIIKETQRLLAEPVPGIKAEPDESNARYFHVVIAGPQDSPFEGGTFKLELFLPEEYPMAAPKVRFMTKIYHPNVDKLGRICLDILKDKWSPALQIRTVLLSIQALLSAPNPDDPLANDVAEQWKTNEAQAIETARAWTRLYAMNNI
Regarding `CC(=O)O[C@@H]1CC2C(C)(C)[C@H](O)C=C[C@]2(C)C2CC[C@]3(C)C(=CC(=O)O[C@H]3c3ccoc3)[C@@]21C` (some centres undefined), the Kd is > 4 mM (inactive).

`OC1CCN(C(=S)NC2CC2)CC1`: the Kd is > 4 mM (inactive).

As for `c1ccc(-c2nsc(N3CCNCC3)n2)cc1`, the Kd was > 4 mM (inactive).

On to `CC(=O)O[C@H]1C[C@@H](OC(C)=O)C(C)(C)C2C[C@@H](O)[C@]3(C)C(CC[C@@]4(C)[C@H](c5ccoc5)OC(=O)[C@H]5O[C@]543)[C@]21C` (some centres undefined), for which the Kd was > 4 mM (inactive).

On to `OCc1csc(-c2ccccc2)n1`, for which the Kd was > 4 mM (inactive).

Regarding `NC(=O)CSc1nnc2ccc(-c3ccccn3)nn12`, the Kd is > 4 mM (inactive).

Consider `O=C(NN1C(=O)c2ccccc2C1=O)c1cccs1`, for which the Kd is > 4 mM (inactive).

Turning to `O=C(O)C1CNc2ccccc2O1` (centres undefined), the Kd was > 4 mM (inactive).

With `O=C(O)C1=CCCNC1`, the Kd was > 4 mM (inactive).

Take `Cn1c(=O)n(-c2cccc(Cl)c2)c(=O)n1C`: the Kd is > 4 mM (inactive).

Turning to `NC(=O)Cn1nc2c3c(cccc3c1=O)-c1ccccc1-2`, the Kd is > 4 mM (inactive).

For `COC(=O)c1cc(-c2c[nH]c3ccccc23)n[nH]1`, the Kd was > 4 mM (inactive).

As for `CCOC(=O)C1CCNCC1`, the Kd was > 4 mM (inactive).

Take `O=C1C=CC2=C3c4cc(O)c(O)cc4CC3(O)COC2=C1O` (centres undefined): the Kd was > 4 mM (inactive).

With `CCNC(=S)N1CCCC(C(N)=O)C1` (centres undefined), the Kd is > 4 mM (inactive).

As for `O=c1oc2ccccc2cc1O`, the Kd is > 4 mM (inactive).

For `Cc1cc(OC(=O)c2c(C)cc(O)cc2O)cc(O)c1C(=O)O`, the Kd is > 4 mM (inactive).

For `Nc1cc(=O)[nH]c(SCC(=O)NC2CCCCC2)n1`, the Kd is > 4 mM (inactive).

As for `CC1=C(/C=C/C(C)=C/C=C/C(C)=C/C=C/C=C(C)/C=C/C=C(C)/C=C/C2=C(C)CCCC2(C)C)C(C)(C)CCC1`, the Kd was > 4 mM (inactive).

Regarding `Cc1ccccc1NS(=O)(=O)c1ccc(F)cc1`, the Kd was > 4 mM (inactive).

As to `O=C(O)c1csc2ccccc12`, the Kd is > 4 mM (inactive).

For `Nc1ncnc2c1ncn2CCOc1ccccc1`, the Kd is > 4 mM (inactive).

For `Cc1occc1C(=O)Nc1ccc(C(N)=O)cc1`, the Kd was > 4 mM (inactive).

Take `O=C(Nc1ccon1)c1cccc(C(F)(F)F)c1`: the Kd was > 4 mM (inactive).

Take `Cc1nc(-c2ccc(CO)s2)cs1`: the Kd is > 4 mM (inactive).

Consider `O=c1c2c(nc3nc(Cc4ccccc4)[nH]n13)CCC2`, for which the Kd was > 4 mM (inactive).

Take `CCNC(=O)CC1Nc2ccccc2NC1=O` (centres undefined): the Kd was > 4 mM (inactive).

Consider `Cc1nc2ccccc2c(=O)n1N1C(=O)CCCC1=O`, for which the Kd was > 4 mM (inactive).

On to `Cc1ccnc(NS(=O)(=O)c2ccccc2)n1`, for which the Kd is > 4 mM (inactive).

Take `Cn1c(=O)[nH]c2nc[nH]c2c1=O`: the Kd is > 4 mM (inactive).

`Cc1n[nH]c(C)c1NC(=O)c1cccc(F)c1`: the Kd is > 4 mM (inactive).

For the molecule `COc1c2ccoc2cc2oc(=O)ccc12`, the Kd is > 4 mM (inactive).

For `CC(=O)O[C@H]1CC[C@@]2(C)C(CC[C@]3(C)C2CC=C2C4CC(C)(C)CC[C@]4(C)CC[C@]23C)C1(C)C` (some centres undefined), the Kd is > 4 mM (inactive).

As for `Nc1scc[n+]1CC(=O)[O-]`, the Kd is > 4 mM (inactive).

`CC(C)NC(=O)Cc1c(O)c2ccccc2[nH]c1=O`: the Kd was > 4 mM (inactive).

For `O=C(O)C1C(=O)NCC1c1ccccc1` (centres undefined), the Kd was > 4 mM (inactive).

On to `NC(=O)CN=Cc1c(O)[nH]c2ccccc12`, for which the Kd was > 4 mM (inactive).

Regarding `C=C[C@@](C)(O)CCC1C(=C)C[C@H](O)C2C(C)(C)CCCC12C` (some centres undefined), the Kd was > 4 mM (inactive).

Consider `COc1c(C)c2c(c(O)c1C/C=C(\C)CCC(=O)O)C(=O)OC2`, for which the Kd is > 4 mM (inactive).

In the case of `O=C(Nc1cccc(Cl)c1)c1cnn2cccnc12`, the Kd is > 4 mM (inactive).

Turning to `COCC(=O)N1CCCc2ccccc21`, the Kd is > 4 mM (inactive).

As for `Nc1nc2ccc(C(=O)O)cc2s1`, the Kd is > 4 mM (inactive).

As for `CC1(C)C2C[C@@H](O)[C@]3(C)C(CC[C@@]4(C)[C@H](c5ccoc5)OC(=O)[C@H]5O[C@]543)[C@@]2(C)[C@@H](O)C[C@H]1O` (some centres undefined), the Kd is > 4 mM (inactive).

On to `Cc1nc(SCC#N)c2c3c(sc2n1)CCC3`, for which the Kd was > 4 mM (inactive).

Turning to `Cc1cc(S(=O)(=O)N2CCOCC2)ccc1F`, the Kd was > 4 mM (inactive).

For the molecule `O=C(O)CCC(=O)Nc1nnc(C(F)(F)F)s1`, the Kd is > 4 mM (inactive).

For the molecule `CC(=O)C1CCC2C3CCC4C[C@H](O)CCC4(C)C3C[C@H](O)C12C` (some centres undefined), the Kd is > 4 mM (inactive).

Take `CC(NC(=O)c1ccco1)c1ccc2c(c1)OCCO2` (centres undefined): the Kd is > 4 mM (inactive).

As to `CC(=O)c1cccc(NC(=O)NN2CCOCC2)c1`, the Kd was > 4 mM (inactive).

Regarding `O=S1(=O)CCC(NC(=S)Nc2ccccc2)C1` (centres undefined), the Kd was > 4 mM (inactive).

For `O=C(NCc1ccccc1)c1ccc[n+]([O-])c1`, the Kd is > 4 mM (inactive).

Turning to `COc1ccc(-c2oc3c(CC=C(C)C)c(O[C@@H]4O[C@H](CO)[C@@H](O)[C@H](O)[C@H]4O)cc(O)c3c(=O)c2O[C@@H]2O[C@@H](C)[C@H](O)[C@@H](O)[C@H]2O)cc1`, the Kd was > 4 mM (inactive).

For `O=C(O)Cc1noc2ccccc12`, the Kd was > 4 mM (inactive).

`c1ccc(CCc2nc(-c3ccncc3)no2)cc1`: the Kd is > 4 mM (inactive).

In the case of `COC(=O)CC1SC(=O)NC1=O` (centres undefined), the Kd is > 4 mM (inactive).

On to `CN1CCN(c2ccc(CN)cc2)CC1`, for which the Kd was > 4 mM (inactive).

For `Cc1ccc(NC(=O)C2CCN(S(C)(=O)=O)CC2)cc1`, the Kd was > 4 mM (inactive).

Turning to `Cc1cc(C)cc(C(=O)N2CCC(C(N)=O)CC2)c1`, the Kd was > 4 mM (inactive).

For `C[C@H](CCC(=O)O)[C@H]1CCC2C3C(CC[C@@]21C)[C@@]1(C)CC[C@@H](O)C[C@H]1C[C@@H]3O` (some centres undefined), the Kd is > 4 mM (inactive).

Take `Nc1ccccc1C(=O)N1CCOCC1`: the Kd was > 4 mM (inactive).

As for `CC1=NCCc2c1[nH]c1cc(O)ccc21`, the Kd is > 4 mM (inactive).

With `CS(=O)(=O)N1CCN(C(=O)Cc2cccs2)CC1`, the Kd was > 4 mM (inactive).

With `CC(CCC(=O)O)[C@H]1CCC2C3CC[C@@H]4C[C@H](O)CC[C@]4(C)C3C[C@H](O)[C@@]21C` (some centres undefined), the Kd is > 4 mM (inactive).

In the case of `Cc1cc(OC(=O)c2ccco2)c([N+](=O)[O-])c(=O)[nH]1`, the Kd was > 4 mM (inactive).

As to `COC(=O)c1c(C)cc(OC(=O)c2c(C)cc(O)c(C=O)c2O)c(C)c1O`, the Kd is > 4 mM (inactive).

In the case of `CSc1n[nH]c(NCc2cccs2)n1`, the Kd is > 4 mM (inactive).

For the molecule `Cc1sc2nc(-c3ccco3)oc(=O)c2c1C`, the Kd is > 4 mM (inactive).

With `COCc1cc(=O)oc2cc(O)c(Cl)cc12`, the Kd was > 4 mM (inactive).

Regarding `O=c1c(-c2ccco2)[n+]([O-])c2ccccc2n1O`, the Kd is > 4 mM (inactive).

Values taken from PubChem BioAssay AID1552 (Sanford-Burnham Center for Chemical Genomics, 2009).
